Experimental data: ChEMBL document CHEMBL1201862, “PubChem BioAssay data set” (2004)
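How tested: cells in 96-well plates exposed to compound for 48 hours at five concentrations. GI50: concentration for 50% inhibition of growth.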 The source made the active and inactive calls. Cut-off read from the data, not from the text of the source: active = GI50 up to about 1.1 µM and inactive = higher.

What was measured:
Experiment in all cases: DTP human tumour cell line panel, 48 h
786-0 = system: 786-0
A549 = system: A549
ACHN = system: ACHN
DU-145 = system: DU-145
HL-60 = system: HL-60
HOP-92 = system: HOP-92
K562 = system: K562
KM12 = system: KM12
M14 = system: M14
MDA-MB-231 = system: MDA-MB-231
Malme-3M = system: Malme-3M
OVCAR-4 = system: OVCAR-4
RPMI-8226 = system: RPMI-8226
SF-539 = system: SF-539
SW-620 = system: SW-620
T47D = system: T47D
UACC-62 = system: UACC-62
HOP-62 = system: HOP-62
LOX IMVI = system: LOX IMVI
MCF7 = system: MCF7

SMILES	GI50 (786-0)	GI50 (A549)	GI50 (ACHN)	GI50 (DU-145)	GI50 (HL-60)	GI50 (HOP-92)	GI50 (K562)	GI50 (KM12)	GI50 (M14)	GI50 (MDA-MB-231)	GI50 (Malme-3M)	GI50 (OVCAR-4)	GI50 (RPMI-8226)	GI50 (SF-539)	GI50 (SW-620)	GI50 (T47D)	GI50 (UACC-62)	GI50 (HOP-62)	GI50 (LOX IMVI)	GI50 (MCF7)
CCN(CC)/N=C\c1c2ccccc2cc2ccccc12	44.2 µM (inactive)	41.6 µM (inactive)	96.8 µM (inactive)	82 µM (inactive)	31.7 µM (inactive)	24.4 µM (inactive)	44.9 µM (inactive)	30.8 µM (inactive)	22 µM (inactive)	24.9 µM (inactive)	49.8 µM (inactive)	54.3 µM (inactive)	30.5 µM (inactive)	> 100 µM (inactive)	29 µM (inactive)	42.7 µM (inactive)	53.6 µM (inactive)	–	–	–
CNC(N)NC	> 100 µM (inactive)	> 100 µM (inactive)	> 100 µM (inactive)	–	> 100 µM (inactive)	> 100 µM (inactive)	> 100 µM (inactive)	> 100 µM (inactive)	> 100 µM (inactive)	–	> 100 µM (inactive)	> 100 µM (inactive)	> 100 µM (inactive)	> 100 µM (inactive)	> 100 µM (inactive)	–	> 100 µM (inactive)	> 100 µM (inactive)	> 100 µM (inactive)	–
O=C(Cc1nc2ccc(C(=O)c3ccccc3)cc2nc1O)C(=O)Nc1ccc(Br)cc1	> 100 µM (inactive)	> 100 µM (inactive)	71.8 µM (inactive)	–	69.7 µM (inactive)	71 µM (inactive)	49.2 µM (inactive)	34.8 µM (inactive)	> 100 µM (inactive)	> 100 µM (inactive)	> 100 µM (inactive)	44.4 µM (inactive)	99.3 µM (inactive)	> 100 µM (inactive)	> 100 µM (inactive)	> 100 µM (inactive)	> 100 µM (inactive)	> 100 µM (inactive)	79.4 µM (inactive)	> 100 µM (inactive)
Cc1cc2nc3c(N)nn(CCCN(C)C)c3nc2cc1C	68.9 µM (inactive)	> 100 µM (inactive)	60.3 µM (inactive)	> 100 µM (inactive)	–	–	–	93.8 µM (inactive)	30.1 µM (inactive)	60.5 µM (inactive)	–	> 100 µM (inactive)	> 100 µM (inactive)	> 100 µM (inactive)	56.9 µM (inactive)	> 100 µM (inactive)	95.7 µM (inactive)	> 100 µM (inactive)	–	33.4 µM (inactive)
CSc1ccc2c(cc1=O)C(NC(=O)c1ccccc1)CCc1cc(O)c(O)c(O)c1-2 (stereo unspecified)	29.4 µM (inactive)	30.5 µM (inactive)	37.6 µM (inactive)	–	7.43 µM (inactive)	4.06 µM (inactive)	10.9 µM (inactive)	4.81 µM (inactive)	15.6 µM (inactive)	–	7.14 µM (inactive)	16.3 µM (inactive)	19.1 µM (inactive)	3.15 µM (inactive)	15.7 µM (inactive)	–	5.05 µM (inactive)	6.01 µM (inactive)	16.4 µM (inactive)	–
COc1cc2c(cc1OC)C(O)[C@H](Br)C(C)(C)O2 (stereo partly specified)	> 100 µM (inactive)	> 100 µM (inactive)	> 100 µM (inactive)	–	> 100 µM (inactive)	> 100 µM (inactive)	> 100 µM (inactive)	> 100 µM (inactive)	> 100 µM (inactive)	–	> 100 µM (inactive)	> 100 µM (inactive)	> 100 µM (inactive)	> 100 µM (inactive)	> 100 µM (inactive)	–	> 100 µM (inactive)	> 100 µM (inactive)	> 100 µM (inactive)	–
CCN(CC)CCNc1ccc2nnn3c4ccc(C)cc4c(=O)c1c23	5.66 µM (inactive)	5.37 µM (inactive)	5.45 µM (inactive)	–	3.9 µM (inactive)	6.55 µM (inactive)	8.24 µM (inactive)	4.56 µM (inactive)	12.8 µM (inactive)	–	12.6 µM (inactive)	12.1 µM (inactive)	4.62 µM (inactive)	6.14 µM (inactive)	4.63 µM (inactive)	–	14 µM (inactive)	14.9 µM (inactive)	3.61 µM (inactive)	–
CC1=C2C(=O)C(C)(C)C=C2C(=O)[C@](C)(O)C12CC2 [DEHYDROILLUDIN M]	0.537 µM (active)	> 1 µM (active)	0.552 µM (active)	–	0.247 µM (active)	> 1 µM (active)	> 1 µM (active)	> 0.935 µM (active)	0.678 µM (active)	–	0.634 µM (active)	0.766 µM (active)	> 1 µM (active)	> 1 µM (active)	> 1 µM (active)	–	0.586 µM (active)	> 1 µM (active)	0.402 µM (active)	–
